The conditions of data set [1]: cited from earlier work; for adverse effects stated in the background text: no dose given.
The target in the next data set is T1, M-1 receptors (Homo sapiens, UniProt P11229).
T1 sequence (P11229 1-460): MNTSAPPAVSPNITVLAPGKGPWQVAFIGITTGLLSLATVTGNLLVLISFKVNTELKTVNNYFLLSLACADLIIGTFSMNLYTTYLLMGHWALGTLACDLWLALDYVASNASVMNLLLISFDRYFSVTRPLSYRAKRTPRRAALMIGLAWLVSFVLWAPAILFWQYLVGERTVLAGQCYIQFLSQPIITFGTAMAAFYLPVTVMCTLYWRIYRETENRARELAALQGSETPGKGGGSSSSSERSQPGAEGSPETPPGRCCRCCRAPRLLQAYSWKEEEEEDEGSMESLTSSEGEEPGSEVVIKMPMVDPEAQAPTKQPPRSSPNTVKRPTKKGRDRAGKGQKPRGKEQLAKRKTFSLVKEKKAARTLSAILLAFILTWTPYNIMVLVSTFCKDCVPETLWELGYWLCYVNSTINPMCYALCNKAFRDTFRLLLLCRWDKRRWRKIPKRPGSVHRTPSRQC
Conditions: cited from earlier work.

For data set [2] the following is noted: in vivo; cited from earlier work.
In a further data set the test system is anesthetized rats. In words: Cystometries (isovolumetric bladder contractions) in anesthetized rats. The class given is in vivo. As to the method: Effect of diazepam administered intravenously and intravaginally on cystometries in anesthetized rats.
Methods: Female rats were anesthetized with urethane (1.3 g/kg intraperitoneally) given as a divided dose of 80% initially and 20% 15 minutes later. Body temperature was maintained at 37±2° C. throughout the experiment. A catheter was inserted into the bladder through the urethra. Then, the urethra was ligated at the level of the urinary meatus. After an abdominal incision, the ureters were also ligated. The jugular vein was catheterized to allow administration of test compounds. The bladder catheter was connected via a T-tube to a strain gauge to measure intravesicular pressure. Isovolumetric bladder contractions were induced by stepwise injections of physiological saline at room temperature (100 μl every 5 min) until stable rhythmic bladder contractions occurred. After stabilization and a control period of at least 30 min, characterized by stable and reproducible bladder contractions (used as basal values), test substance or vehicle was administered i.v. (as a bolus under a volume of 200 μl) or i.vag. (under a volume of 100 μl using a syringe). The drug effects were evaluated for 1 hour following the end of administration. Each animal received one dose of one test substance.

The next data set deals with overactive bladder (OAB). Description: Case reports of subjects with OAB treated with local diazepam. In kind it is in vivo, human. On the procedure:
A person had been suffering from symptoms consistent with OAB for several months. Following a confirmatory diagnosis of OAB, the subject was instructed to use vaginal suppositories containing 20 mg of diazepam in a glycerine base three times a day. […] The subject continues to do well on a maintenance dose of 20 mg once or twice a day.
A person had been suffering from symptoms consistent with OAB for several months. A diagnosis of OAB was confirmed by an urologist. A nurse then administered intraurethrally to the subject 2 ml of a gel formulation containing 10 mg/ml of diazepam in 2% methylcellulose, providing a total dose of 20 mg of diazepam. […] This subject is able to treat themself at home using the same type of formulation and the same route of administration up to 3 times per day as needed.
His symptoms were not relieved with high doses of oral diazepam but were well-controlled by intraurethral instillations of 2 ml of diazepam in a gel formulation containing 10 mg/ml of diazepam in hydroethylcellulose, providing a total of 20 mg of diazepam administered at bedtime.
A person with advanced dementia suffered from OAB symptoms including nocturia and urge incontinence. Despite the use of incontinence pads, the subject would frequently arise throughout the night without requesting assistance to go the bathroom. This led to numerous falls.

[3] abbreviates: intravaginal, vs basal values, through 30 minutes post administration.
Where [4] appears, read: Example 6, intraurethral 1 ml gel 20 mg/ml in 3% hydroxyethylcellulose three times per day.

Where two headings read alike, the source gives them in different places.

Take `CC(C)C(=O)Oc1ccc(CO)cc1[C@H](CCN(C(C)C)C(C)C)c1ccccc1` [fesoterodine]: the “Adverse Events” value in data set [1] (4 mg or 8 mg QD, constipation) is on record as “constipation”; in data set [1] (4 mg or 8 mg QD, dry mouth) it was “dry mouth”; in data set [1] (4 mg or 8 mg QD, urinary tract infection) it was “urinary tract infection”. Further, the “adverse effects stated in the background text” value in data set [1] was “associated with constipation, dry mouth and sometimes urinary tract infection”.

With `CCN(CC)CC#CCOC(=O)C(O)(c1ccccc1)C1CCCCC1` (stereo not drawn) [oxybutynin chloride], the “Adverse Events” value in data set [1] (3.9 mg transdermal per day, dry mouth) is listed as “dry mouth”; in data set [1] (3.9 mg transdermal per day, erythema) it was “erythema”; in data set [1] (3.9 mg transdermal per day, pruritis), “pruritis”. The “adverse effects stated in the background text” value in data set [1] was “highly associated with adverse cognitive effects and effects on sleep architecture and quality”.

Consider `NC(=O)C(c1ccccc1)(c1ccccc1)[C@@H]1CCN(CCc2ccc3c(c2)CCO3)C1` [darifenacin], for which the “Adverse Events” value is given as “constipation” in data set [1] (7.5 mg per day, constipation); “dry mouth” in data set [1] (7.5 mg per day, dry mouth); “constipation” in data set [1] (15 mg per day, constipation); “dry mouth” in data set [1] (15 mg per day, dry mouth); “dyspepsia” in data set [1] (15 mg per day, dyspepsia). The “affinity for M-1 receptors” value at M-1 receptors is given as “reduced affinity for M-1 receptors”.

`O=C(O[C@H]1C[C@H]2CC[C@@H](C1)[N+]21CCCC1)C(O)(c1ccccc1)c1ccccc1` [trospium chloride]: the “Adverse Events” value is “constipation” in data set [1] (20 mg × 2 per day, constipation) and “dry mouth” in data set [1] (20 mg × 2 per day, dry mouth). In data set [2], the “fraction excreted completely active” value is 60%.

Take `CN1C(=O)CN=C(c2ccccc2)c2cc(Cl)ccc21` [diazepam, 7-chloro-1,3-dihydro-1-methyl-5-phenyl-2H-1,4-benzodiazepin-2-one]: the “reductions in micturition frequency and amplitude, intravaginal compared with intravenous” value with anesthetized rats (intravaginal vs intravenous administration) is “comparable to those achieved by intraveneous administration”. Moreover, in the data set with anesthetized rats (setting [3]), the “micturition amplitude (threshold for voiding)” value is listed as “significant reductions” and the micturition frequency entry was “significant reductions”. Moreover, in the data set with overactive bladder (OAB) (Example 3, person, vaginal suppositories 20 mg in glycerine base three times a day), the “symptoms of urgency, frequency and incontinence” value is “greatly reduced”. The cognitive impairment entry in the data set with overactive bladder (OAB) (Example 3, vaginal suppositories 20 mg in glycerine base three times a day) is on record as “No cognitive impairment was observed or reported”. In the data set with overactive bladder (OAB) (Example 4, intraurethral 2 ml gel 10 mg/ml in 2% methylcellulose (20 mg)), the cognitive impairment result is on record as “without causing any observable cognitive impairment”. Besides, the OAB symptoms entry in the data set with overactive bladder (OAB) (Example 4, person, intraurethral 2 ml gel 10 mg/ml in 2% methylcellulose (20 mg)) is on record as “reduced OAB symptoms significantly”. In addition, in the data set on overactive bladder (OAB) (Example 5, intraurethral 2 ml gel 10 mg/ml (20 mg) at bedtime), the adverse effects result was “did not suffer any adverse effects”. In addition, the “symptoms (nocturia, nighttime urinary incontinence)” value in the data set on overactive bladder (OAB) (Example 5, intraurethral 2 ml gel 10 mg/ml in hydroethylcellulose (20 mg) at bedtime) was “well-controlled”. For the same molecule, the “symptoms (nocturia, nighttime urinary incontinence)” value with overactive bladder (OAB) (Example 5, person, high doses of oral diazepam) is given as “not relieved”. Besides, in the data set on overactive bladder (OAB) (setting [4]), the adverse effects entry was “no apparent adverse effects”, the cognitive impairment entry is “without causing cognitive impairment”, the daytime urgency entry is listed as “reduced daytime urgency” and the nighttime falls result is listed as “near-absence of nighttime falls”. Besides, the “nocturia (sleep through the night)” value in the data set with overactive bladder (OAB) (setting [4]) is on record as “able to sleep in bed throughout the night without arising to urinate”. Further, the cognitive impairments result with overactive bladder (OAB) (Example 6, person, oral antimuscarinic and oral diazepam) is listed as “led to cognitive impairments which increased the number of falls from bed”.

These data come from patent US20100273783A1, “Compositions and Methods for Treating and Preventing Overactive Bladder and Conditions Associated Therewith” (OPTMED, INC., priority 2009, published 2010).
